Results as given in PubChem BioAssay AID1963440 (Molecular Pharmacology Branch, DTP, NCI, 2024).
Several values for one entry are separate records, joined by “and”; a condition that tells them apart may be missing. Equal values may be shown once.

Tested on: NCI-H1417 complex spheroids, growth % test/control
Assay: Anticancer human tumor NCI-H1417 cell line growth inhibition [Asc];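 also: spheroids exposed to compounds for 7 days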;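 as to viability, T/C: 100% = DMSO vehicle control wells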
Conditions: for viability, T/C: stronger effect = lower value
Method in brief: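 Complex solid-tumor spheroids incorporating human endothelial and mesenchymal stem cells received single agents or combinations over half-log dilution ranges anchored to clinical Cmax.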

[1] = curve of first compound, second compound 0.01 µM
[2] = curve of first compound, second compound 0.0316 µM
[3] = curve of first compound, second compound 0.1 µM
[4] = curve of first compound, second compound 0.316 µM
[5] = curve of first compound, second compound 1 µM
[6] = second compound 0.01 µM, first compound 0.0316 µM
[7] = second compound 0.01 µM, first compound 0.1 µM
[8] = second compound 0.01 µM, first compound 0.316 µM
[9] = second compound 0.01 µM, first compound 1 µM
[10] = second compound 0.0316 µM, first compound 0.0316 µM
[11] = second compound 0.0316 µM, first compound 0.1 µM
[12] = second compound 0.0316 µM, first compound 0.316 µM
[13] = second compound 0.0316 µM, first compound 1 µM
[14] = second compound 0.1 µM, first compound 0.0316 µM
[15] = second compound 0.1 µM, first compound 0.1 µM
[16] = second compound 0.1 µM, first compound 0.316 µM
[17] = second compound 0.1 µM, first compound 1 µM
[18] = second compound 0.316 µM, first compound 0.0316 µM
[19] = second compound 0.316 µM, first compound 0.1 µM
[20] = second compound 0.316 µM, first compound 0.316 µM
[21] = second compound 0.316 µM, first compound 1 µM
[22] = second compound 1 µM, first compound 0.0316 µM
[23] = second compound 1 µM, first compound 0.1 µM
[24] = second compound 1 µM, first compound 0.316 µM
[25] = second compound 1 µM, first compound 1 µM

CCN1CCN(Cc2ccc(Nc3ncc(F)c(-c4cc(F)c5nc(C)n(C(C)C)c5c4)n3)nc2)CC1 + CNC(C)C(=O)NC1CN(S(=O)(=O)c2cccc(S(=O)(=O)N3CCC4CCC(C(=O)NC(c5ccccc5)c5ccccc5)N4C(=O)C(NC(=O)C(C)NC)C3)c2)CCC2CCC(C(=O)NC(c3ccccc3)c3ccccc3)N2C1=O
IC50 [1]: > 1 µM | IC50 [2]: > 1 µM | IC50 [3]: > 1 µM | IC50 [4]: > 1 µM | IC50 [5]: > 1 µM | viability, T/C (second compound 0.01 µM, first compound 0.00316 µM): 100% | viability, T/C (second compound 0.01 µM, first compound 0.01 µM): 108% | viability, T/C [6]: 106% | viability, T/C [7]: 99.7% | viability, T/C [8]: 96.5% | viability, T/C [9]: 111% | viability, T/C (second compound 0.0316 µM, first compound 0.00316 µM): 102% | viability, T/C (second compound 0.0316 µM, first compound 0.01 µM): 103% | viability, T/C [10]: 104% | viability, T/C [11]: 105% | viability, T/C [12]: 97.4% | viability, T/C [13]: 103% | viability, T/C (second compound 0.1 µM, first compound 0.00316 µM): 93.2% | viability, T/C (second compound 0.1 µM, first compound 0.01 µM): 101% | viability, T/C [14]: 99.2% | viability, T/C [15]: 97.8% | viability, T/C [16]: 103% | viability, T/C [17]: 109% | viability, T/C (second compound 0.316 µM, first compound 0.00316 µM): 99.3% | viability, T/C (second compound 0.316 µM, first compound 0.01 µM): 105% | viability, T/C [18]: 90.6% | viability, T/C [19]: 99.9% | viability, T/C [20]: 95.2% | viability, T/C [21]: 97.7% | viability, T/C (second compound 1 µM, first compound 0.00316 µM): 105% | viability, T/C (second compound 1 µM, first compound 0.01 µM): 109% | viability, T/C [22]: 101% | viability, T/C [23]: 110% | viability, T/C [24]: 90% | viability, T/C [25]: 93.7%

O=C(c1ccc(F)c(F)c1Nc1ccc(I)cc1F)N1CC(O)([C@@H]2CCCCN2)C1
viability, T/C (compound 0.00316 µM): 89.8% and 105% and 96.8% | viability, T/C (compound 0.01 µM): 99.2% and 107% and 97.3% | viability, T/C (compound 0.0316 µM): 84.4% and 103% and 97.9% | viability, T/C (compound 0.1 µM): 89% and 98.1% and 116% | viability, T/C (compound 0.316 µM): 88.8% and 94.5% and 97.2% | viability, T/C (compound 1 µM): 65.3% and 83.7% and 98.2% | IC50 (curve of compound): > 1 µM

O=C(c1cc(Cc2n[nH]c(=O)c3ccccc23)ccc1F)N1CCN(C(=O)C2CC2)CC1 + CNC(C)C(=O)NC1CN(S(=O)(=O)c2cccc(S(=O)(=O)N3CCC4CCC(C(=O)NC(c5ccccc5)c5ccccc5)N4C(=O)C(NC(=O)C(C)NC)C3)c2)CCC2CCC(C(=O)NC(c3ccccc3)c3ccccc3)N2C1=O
IC50 [1]: 5.78 µM | IC50 [2]: 6.33 µM | IC50 [3]: 4.79 µM | IC50 [4]: 5.52 µM | IC50 [5]: 5.39 µM | viability, T/C [6]: 101% | viability, T/C [7]: 101% | viability, T/C [8]: 94.7% | viability, T/C [9]: 83.6% | viability, T/C (second compound 0.01 µM, first compound 3.16 µM): 65.6% | viability, T/C (second compound 0.01 µM, first compound 10 µM): 36.1% | viability, T/C [10]: 102% | viability, T/C [11]: 87.8% | viability, T/C [12]: 88.5% | viability, T/C [13]: 100% | viability, T/C (second compound 0.0316 µM, first compound 3.16 µM): 71.5% | viability, T/C (second compound 0.0316 µM, first compound 10 µM): 35.8% | viability, T/C [14]: 90.3% | viability, T/C [15]: 93.5% | viability, T/C [16]: 81.8% | viability, T/C [17]: 90% | viability, T/C (second compound 0.1 µM, first compound 3.16 µM): 60.7% | viability, T/C (second compound 0.1 µM, first compound 10 µM): 30.9% | viability, T/C [18]: 99.9% | viability, T/C [19]: 92.3% | viability, T/C [20]: 96.7% | viability, T/C [21]: 85.6% | viability, T/C (second compound 0.316 µM, first compound 3.16 µM): 68.8% | viability, T/C (second compound 0.316 µM, first compound 10 µM): 30% | viability, T/C [22]: 97.7% | viability, T/C [23]: 90% | viability, T/C [24]: 91.2% | viability, T/C [25]: 95% | viability, T/C (second compound 1 µM, first compound 3.16 µM): 65.5% | viability, T/C (second compound 1 µM, first compound 10 µM): 32%
